Holding throughout (format): binding, BALB/c mice
Experiment [1] deals with polyclonal antibody to 1-Substituted 5-FU KLH Immunogen (example 5). As to the kind of experiment: Indirect competitive microtiter plate immunoassay (ELISA), antibodies to 5-FU derivative 4 conjugate; plate coating 3-substituted BSA conjugate (10:1, example 7a). Particulars: relative to 5-FU (ratio of IC50 for 5-FU to IC50 of analyte), 1-Substituted KLH Immunogen, plate coating 3-Substituted BSA Conjugate (10:1 ratio). The protocol: (§1) Ten Female BALB/c mice were immunized i.p. with 100 μg/mouse of 5-FU-KLH prepared in example 5 or with 5-FU-BTG prepared in example 6a, emulsified in Complete Freund's Adjuvant. Mice were boosted once four weeks after the initial injection with 100 μg/mouse of the same immunogens emulsified in Incomplete Freund's Adjuvant. Ten days after the boost test bleeds from each mouse were obtained by orbital bleed. The anti-serum from these test bleeds contained 5-FU antibodies evaluated in Examples 12a, 13, and 14. For monoclonal antibodies ten Female BALB/c mice were immunized i.p. with 100 μg/mouse of 3-substituted 5-FU-KLH prepared in example 6b, emulsified in Complete Freund's Adjuvant. Mice were boosted once four weeks after the initial injection with 100 μg/mouse of the same immunogens emulsified in Incomplete Freund's Adjuvant. Ten days after the boost test bleeds from each mouse were obtained by orbital bleed and these were screened as in examples 12a and 15. To produce monoclonal antibodies starting four days before the fusion (day 0), the mice were injected i.p. with 400 μg (day 3), 200 μg (day 2) and 200 μg (day 1) 3-substituted 5-FU KLH immunogen in PBS on three successive days. Spleen cells were isolated from the selected mice and fused with 2×10^7 SP2/0 cells with 50% polyethylene glycol 1500 according to the method of Coligan, J. E. et al., eds., Current Protocols in Immunology, 2.5.1-2.5.8, (1992), Wiley & Sons, NY. The fused cells were plated on 10 96-well plates in DMEM/F12 supplemented with 20% FetalClone I, 2% L-glutamine (100 mM) and 2% 50×HAT. Two weeks later, the hybridoma supernatant was assayed for the presence of anti-5-FU by ELISA (example 12b). Positive wells were expanded and again screened by the same method. The positive clones were confirmed for 5-FU binding by a competitive ELISA (examples 12a and 15). Clones positive by ELISA were subcloned once or twice by limiting dilution according to the method disclosed in Coligan, J. E. et al., eds., Current Protocols in Immunology, 2.5.8-2.5.17, (1992), Wiley & Sons, NY.
(§2) The ELISA method for measuring 5-FU concentrations was performed in polystyrene microtiter plates (Nunc MaxiSorp C8 or F8 Immunomodules) optimized for protein binding and containing 96 wells per plate. Each well was coated with 5-FU-BSA conjugate (prepared as in example 7a) by adding 300 μL of 5-FU-BSA conjugate at 10 μg/mL in 0.05M sodium bicarbonate, pH=9.6, and incubating for three hours at room temperature. The wells were washed with 0.05M sodium bicarbonate, pH9.6 and then were blocked with 400 μL of 5% sucrose, 0.2% sodium caseinate solution for 30 minutes at room temperature. After removal of the post-coat solution the plates were dried at 37° C. overnight.
(§3) The ELISA method for screening 5-FU antibodies (produced in example 9) was performed with the microtiter plates that were sensitized with 5-FU-BSA as described in examples 7a, 7b and 8. The antibody screening assay was performed by diluting the antisera containing 5-FU antibodies to 1:100, 1:1,000, 1:10,000 and 1:100,000 in phosphate buffered saline containing 0.1% BSA and 0.01% thimerosal. To each well of 5-FU-BSA sensitized wells (prepared in examples 11a, 11b and 10) 100 μL of diluted antibody was added and incubated for 10 minutes at room temperature with shaking. During this incubation antibody binds to the 5-FU-conjugate in the well. The wells of the plates were washed three times with 0.02 M TRIS, 0.9% NaCl, 0.5% Tween-80 and 0.001% Thimerosal, pH 7.8 to remove any unbound antibody. To detect the amount of 5-FU antibody bound to the 5-FU-BSA conjugate in the wells, 100 μL of a goat anti-mouse antibody-HRP enzyme conjugate (Jackson Immunoresearch) diluted 1/2000 in PBS with 0.1% BSA, 0.05% ANS, 0.01% thimerosal, capable of binding specifically with murine immunoglobulins and producing a colored product when incubated with a substrate, were added to each well. […]

Experiment [2] concerns polyclonal antibody to 3-Substituted 5-FU BTG Immunogen (example 6a). As to the kind of experiment: Indirect competitive microtiter plate immunoassay (ELISA), antibodies to 5-FU derivative 13 conjugate; plate coating 1-substituted BSA conjugate (20:1, example 8). The following applies: relative to 5-FU (ratio of IC50 for 5-FU to IC50 of analyte), 3-Substituted BTG Immunogen, plate coating 1-Substituted BSA Conjugate (20:1 ratio). The procedure:
as §1
as §2, with “8)” for “7a)”
as §3

Experiment [3] has as its system monoclonal antibody to 3-substituted 5-FU KLH immunogen (example 6b). As to the kind of experiment: Indirect competitive microtiter plate immunoassay (ELISA), monoclonal antibody; plate coating 3-substituted BSA conjugate (1:1, example 7b). Particulars: relative to 5-FU (ratio of IC50 for 5-FU to IC50 of analyte), 3-Substituted KLH Immunogen, plate coating 3-Substituted BSA Conjugate (example 7b). The protocol:
as §1
as §2, with “7b)” for “7a)”, “375” for “400”
as §3

As to `O=c1[nH]cc(F)c(=O)[nH]1` [5Fluorouracil, 5-fluoro-uracil], the Cross-Reactivity in experiment [1], in experiment [2] and in experiment [3] was 100.0% in each case.

As to `Nc1cc[nH]c(=O)n1` [Cytosine, cytosine], the Cross-Reactivity was under 0.1% in experiment [1]; under 0.3% in experiment [2]; “less than 0.03%” in experiment [2] (listed as cytosine); under 0.01% in experiment [3]; “less than 0.01%” in experiment [3] (listed as cytosine).

Turning to `O=c1cc[nH]c(=O)[nH]1` [Uracil, uracil], the Cross-Reactivity in experiment [1] is 4.0%; in experiment [2] it was 7.5%; in experiment [2] (listed as uracil) it was “less than 8%”; in experiment [3] it was 7.3%; in experiment [3] (listed as uracil), “less than 8%”.

For the compound `Cc1c[nH]c(=O)[nH]c1=O` [Thymine, thymine], the Cross-Reactivity was 6.7% in experiment [1]; 12.0% in experiment [2]; “about 12%” in experiment [2] (listed as thymine); 3.2% in experiment [3]; “less than 4%” in experiment [3] (listed as thymine).

With `O=c1[nH]c(=O)n(C2CCCO2)cc1F` (stereo not drawn) [Tegafur, tegafur], the Cross-Reactivity is on record as 200.0% in experiment [1]; 200% in experiment [1] (listed as tegafur); 0.5% in experiment [2]; “less than 1%” in experiment [2] (listed as tegafur); 1.0% in experiment [3]; “approximately 1%” in experiment [3] (listed as tegafur).

The record behind these values is patent US9551724B2, “5-fluoro-uracil immunoassay” (SALADAX BIOMEDICAL, INC., priority 2005, dated 2017).
